Results published in patent US12135326B2 (priority 2019, dated 2024).
Values joined by “and” are separate entries in the source; they are usually repeats but may differ in a detail not shown here. Equal entries are not always repeated.

Columns and labels:
WT α-HL nanopore [1] = biological target: T1, WT α-HL nanopore (Staphylococcus aureus, UniProt P09616); format: binding
WT α-HL nanopore [2] = biological target: T1, WT α-HL nanopore; format: binding; remark: listed apart in the source

T1 sequence (P09616 27-319 limits assumed): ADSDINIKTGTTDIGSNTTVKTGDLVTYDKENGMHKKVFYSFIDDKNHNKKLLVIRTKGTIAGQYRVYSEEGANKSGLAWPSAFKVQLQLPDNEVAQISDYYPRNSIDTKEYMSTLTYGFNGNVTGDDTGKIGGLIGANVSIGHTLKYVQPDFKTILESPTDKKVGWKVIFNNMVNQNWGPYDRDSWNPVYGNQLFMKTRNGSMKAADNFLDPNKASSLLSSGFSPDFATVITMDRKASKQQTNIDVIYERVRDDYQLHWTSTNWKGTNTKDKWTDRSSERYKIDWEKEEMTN

Substance | mean value of % F (blockade level % Fb, center value±FWHM) (WT α-HL nanopore [1]) | sensing / translocation through α-HL nanopore by DOP (in words) (WT α-HL nanopore [1]) | Ip (mean blockage depth) (WT α-HL nanopore [2]) | τoff (WT α-HL nanopore [2]) | 1/τoff (WT α-HL nanopore [1]) | mean Fp (mean blockage depth) (WT α-HL nanopore [1]) | mean τoff (dwell time constant) (WT α-HL nanopore [1])
5′-GATAGTGAGCCAAATTTAAA-3′ [oligomeric ssDNA] | 0.289±0.175 | able to pass through the α-HL nanopore |  |  |  |  | 
Trimethyl-β-cyclodextrin [TriM-β-CD] |  |  | 0.065±0.002 | 0.386 ± 0.392 s | 2.515 ± 0.440 s⁻¹ and 2.437 ± 0.449 s⁻¹ and 2.953 ± 0.616 s⁻¹ and 3.640 ± 0.330 s⁻¹ | 0.078±0.010 | 0.347 ± 0.067 s
